Measured values from ChEMBL document CHEMBL5257109, “Development of actein derivatives as potent anti-triple negative breast cancer agents” (Bioorg Med Chem Lett, 2023).
Calls of active or inactive are those of the source. The calls are words filed in the database; no cut-off is given here.

Key:
[1] = system: HCC1806; experiment: Antiproliferative activity against human HCC1806 cells assessed as inhibition of cell growth incubated for 36 hrs by SRB assay; type: functional, cell-based; details: for IC50: HCC1806, 36 h
[2] = system: MDA-MB-231; experiment: Antiproliferative activity against human MDA-MB-231 cells assessed as inhibition of cell growth incubated for 36 hrs by SRB assay; type: functional, cell-based; details: for IC50: MDA-MB-231, 36 h

| Structure (SMILES) | Activity [1] | Activity [2] | IC50 [1] [µM] | IC50 [2] [µM] |
| --- | --- | --- | --- | --- |
| CC(=O)OC1O[C@]2(C[C@@H](C)[C@H]3[C@H](C[C@@]4(C)[C@@H]5CC[C@H]6C(C)(C)[C@@H](O[C@@H]7OC[C@@H](OC(C)=O)[C@H](OC(C)=O)[C@H]7OC(C)=O)CC[C@@]67C[C@@]57CC(=O)[C@]34C)O2)[C@@H]2O[C@]12C (some centres not stated) | inactive | inactive | – | – |
| CO[C@H]1O[C@]2(C[C@@H](C)[C@H]3[C@H](C[C@@]4(C)[C@@H]5CC[C@H]6C(C)(C)[C@@H](O[C@@H]7OC[C@@H](OC(C)=O)[C@H](OC(C)=O)[C@H]7OC(C)=O)CC[C@@]67C[C@@]57C[C@@H](OC(C)=O)[C@]34C)O2)[C@@H]2O[C@]12C | – | – | > 20 | > 20 |
| COc1ccc(C(=O)O[C@H]2O[C@]3(C[C@@H](C)[C@H]4[C@H](C[C@@]5(C)[C@@H]6CC[C@H]7C(C)(C)[C@@H](O[C@@H]8OC[C@@H](OC(C)=O)[C@H](OC(C)=O)[C@H]8OC(C)=O)CC[C@@]78C[C@@]68C[C@@H](OC(C)=O)[C@]45C)O3)[C@@H]3O[C@]23C)cc1 | – | – | > 20 | > 20 |
| CC(=O)O[C@@H]1[C@@H](OC(C)=O)[C@H](O[C@H]2CC[C@]34C[C@]35C[C@@H](OC(C)=O)[C@]3(C)[C@H]6[C@H](C)C[C@]7(O[C@H](OC(=O)c8ccccc8F)[C@@]8(C)O[C@@H]78)O[C@H]6C[C@@]3(C)[C@@H]5CC[C@H]4C2(C)C)OC[C@H]1OC(C)=O | – | – | > 20 | > 20 |
| CC(=O)O[C@@H]1[C@@H](OC(C)=O)[C@H](O[C@H]2CC[C@]34C[C@]35C[C@@H](OC(C)=O)[C@]3(C)[C@H]6[C@H](C)C[C@]7(O[C@H](OC(=O)/C=C/c8ccc(OC(F)(F)F)cc8)[C@@]8(C)O[C@@H]78)O[C@H]6C[C@@]3(C)[C@@H]5CC[C@H]4C2(C)C)OC[C@H]1OC(C)=O | – | – | > 20 | > 20 |
| CC(=O)O[C@H]1O[C@]2(C[C@@H](C)[C@H]3[C@H](C[C@@]4(C)[C@@H]5CC[C@H]6C(C)(C)[C@@H](O[C@@H]7OC[C@@H](O)[C@H](O)[C@H]7O)CC[C@@]67C[C@@]57C[C@@H](OC(C)=O)[C@]34C)O2)[C@@H]2O[C@]12C | – | – | > 20 | > 20 |
| CC(=O)O[C@@H]1[C@@H](OC(C)=O)[C@H](O[C@H]2CC[C@]34C[C@]35C[C@H](F)[C@]3(C)[C@H]6[C@H](C)C[C@]7(OC(=O)[C@@]8(C)O[C@@H]78)O[C@H]6C[C@@]3(C)[C@@H]5CC[C@H]4C2(C)C)OC[C@H]1OC(C)=O | – | – | > 20 | > 20 |
| CC(=O)O[C@@H]1[C@@H](OC(C)=O)[C@H](O[C@H]2CC[C@]34C[C@]35CC(=O)[C@]3(C)[C@H]6[C@H](C)C[C@]7(OC(OC(=O)c8ccccc8F)[C@@]8(C)O[C@@H]78)O[C@H]6C[C@@]3(C)[C@@H]5CC[C@H]4C2(C)C)OC[C@H]1OC(C)=O (some centres not stated) | inactive | inactive | – | – |
| CC(=O)O[C@@H]1C[C@@]23C[C@@]24CC[C@H](O[C@@H]2OC[C@@H](O)[C@H](O)[C@H]2O)C(C)(C)[C@@H]4CC[C@H]3[C@]2(C)C[C@@H]3O[C@]4(C[C@@H](C)[C@@H]3[C@@]12C)O[C@@H](OC(=O)CCC(=O)O)[C@@]1(C)O[C@@H]41 | – | – | > 20 | > 20 |
| COC1O[C@]2(C[C@@H](C)[C@H]3[C@H](C[C@@]4(C)[C@@H]5CC[C@H]6C(C)(C)[C@@H](O[C@@H]7OC[C@@H](O)[C@H](O)[C@H]7O)CC[C@@]67C[C@@]57C[C@@H](OC(C)=O)[C@]34C)O2)[C@@H]2O[C@]12C (some centres not stated) | – | – | > 20 | > 20 |
| CO[C@@H]1O[C@]2(C[C@@H](C)[C@H]3[C@H](C[C@@]4(C)[C@@H]5CC[C@H]6C(C)(C)[C@@H](O[C@@H]7OC[C@@H](OC(C)=O)[C@H](OC(C)=O)[C@H]7OC(C)=O)CC[C@@]67C[C@@]57C[C@@H](OC(C)=O)[C@]34C)O2)[C@@H]2O[C@]12C | – | – | > 20 | > 20 |
| CC(=O)O[C@@H]1[C@@H](OC(C)=O)[C@H](O[C@H]2CC[C@]34C[C@]35CC(=O)[C@]3(C)[C@H]6[C@H](C)C[C@]7(OC(=O)[C@@]8(C)O[C@@H]78)O[C@H]6C[C@@]3(C)[C@@H]5CC[C@H]4C2(C)C)OC[C@H]1OC(C)=O | inactive | inactive | – | – |
| C[C@@H]1C[C@]2(OC(O)[C@@]3(C)O[C@@H]23)O[C@H]2C[C@@]3(C)[C@@H]4CC[C@H]5C(C)(C)[C@@H](O[C@@H]6OC[C@@H](O)[C@H](O)[C@H]6O)CC[C@@]56C[C@@]46C[C@@H](O)[C@]3(C)[C@@H]12 (some centres not stated) | – | – | > 20 | > 20 |
| CC(=O)O[C@@H]1C[C@@]23C[C@@]24CC[C@H](O[C@@H]2OC[C@@H](O)[C@H](O)[C@H]2O)C(C)(C)[C@@H]4CC[C@H]3[C@]2(C)C[C@@H]3O[C@]4(C[C@@H](C)[C@@H]3[C@@]12C)OC(=O)[C@@]1(C)O[C@@H]41 | – | – | > 20 | > 20 |
| CC(=O)O[C@@H]1[C@@H](OC(C)=O)[C@H](O[C@H]2CC[C@]34C[C@]35CC(=O)[C@]3(C)[C@H]6[C@H](C)C[C@]7(OC(OC(=O)c8ccccc8)[C@@]8(C)O[C@@H]78)O[C@H]6C[C@@]3(C)[C@@H]5CC[C@H]4C2(C)C)OC[C@H]1OC(C)=O (some centres not stated) | inactive | inactive | – | – |
| C[C@@H]1C[C@]2(OC(=O)[C@@]3(C)O[C@@H]23)O[C@H]2C[C@@]3(C)[C@@H]4CC[C@H]5C(C)(C)[C@@H](O[C@@H]6OC[C@@H](O)[C@H](O)[C@H]6O)CC[C@@]56C[C@@]46C[C@H](F)[C@]3(C)[C@@H]12 | – | – | > 20 | > 20 |
| CC(=O)O[C@@H]1[C@@H](OC(C)=O)[C@H](O[C@H]2CC[C@]34C[C@]35C[C@@H](OC(C)=O)[C@]3(C)[C@H]6[C@H](C)C[C@]7(O[C@H](OC(=O)c8ccccc8)[C@@]8(C)O[C@@H]78)O[C@H]6C[C@@]3(C)[C@@H]5CC[C@H]4C2(C)C)OC[C@H]1OC(C)=O | – | – | > 20 | > 20 |
| CC(=O)O[C@@H]1O[C@]2(C[C@@H](C)[C@H]3[C@H](C[C@@]4(C)[C@@H]5CC[C@H]6C(C)(C)[C@@H](O[C@@H]7OC[C@@H](O)[C@H](O)[C@H]7O)CC[C@@]67C[C@@]57C[C@@H](OC(C)=O)[C@]34C)O2)[C@@H]2O[C@]12C | – | – | > 20 | > 20 |
| CC(=O)O[C@@H]1[C@@H](OC(C)=O)[C@H](O[C@H]2CC[C@]34C[C@]35C[C@@H](OC(C)=O)[C@]3(C)[C@H]6[C@H](C)C[C@]7(O[C@H](OC(=O)c8ccc([N+](=O)[O-])cc8)[C@@]8(C)O[C@@H]78)O[C@H]6C[C@@]3(C)[C@@H]5CC[C@H]4C2(C)C)OC[C@H]1OC(C)=O | – | – | > 20 | > 20 |
| CC(=O)O[C@@H]1[C@@H](OC(C)=O)[C@H](O[C@H]2CC[C@]34C[C@]35C[C@@H](OC(C)=O)[C@]3(C)[C@H]6[C@H](C)C[C@]7(OC(=O)[C@@]8(C)O[C@@H]78)O[C@H]6C[C@@]3(C)[C@@H]5CC[C@H]4C2(C)C)OC[C@H]1OC(C)=O | – | – | > 20 | > 20 |
| C[C@@H]1C[C@]2(OC(O)[C@@]3(C)O[C@@H]23)O[C@H]2C[C@@]3(C)[C@@H]4CC[C@H]5C(C)(C)[C@@H](O[C@@H]6OC[C@@H](O)[C@H](O)[C@H]6O)CC[C@@]56C[C@@]46CC(=O)[C@]3(C)[C@@H]12 (some centres not stated) | – | – | > 20 | > 20 |
